The text below walks through data of patent US8846951B2 (AbbVie Inc., priority 2009, dated 2014).

Entries after “also recorded” stand apart in the source; their conditions may differ.

Data set [1] concerns the target T1, 5HT2B receptors (Homo sapiens, UniProt P41595).
T1 construct: expressed in transfected cells; host or cells: CHO-K1 cells
Description: Human 5-HT2B functional high throughput screening assay in CHO-K1 cells (calcium flux). The class given is cell-based. Put shortly: (§1)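 Agonism was measured as FLIPR fluorescence increase (480/530 nm, 25° C) with Ca4 dye and 2.5 mM probenecid, in serum-starved CHO-K1 lines overexpressing human 5-HT2C or 5-HT2B. Six-point 1:10 dilutions from 10 μM (0.2% DMSO final) were fitted by 4-parameter logistics. Responses were normalised to serotonin to give EC50 and % Emax.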

The subject of data set [2] is AMP- or PCP-induced hyperactivity. Description: Psychostimulant (AMP or PCP)-induced hyperlocomotion in mice. The class given is in vivo, mouse. As to conditions: test compound ip 30 min before d-amphetamine 2.0 mg/kg sc; call rule not given here. From the text:
(x) Assessment of Effects on Psychostimulant-Induced Hyperlocomotion in Mice
In both humans and experimental animals amphetamine (AMP) profoundly affects motor activity, sensorimotor function, sleep, attention, aggressive and sexual behaviors, learning and memory, operant behaviors, appetite and food intake. In addition, amphetamine induces psychotic reactions in normal individuals and exacerbates symptoms of schizophrenia in patients. In experimental animals several distinct behaviors are considered to be correlates of amphetamine psychosis. For example, amphetamine-induced hyperactivity in rodents is believed to model the psychotic symptoms of schizophrenia. Reversal of these behaviors is used to predict potential antipsychotic activity of drugs in pre-clinical studies.
In humans, phencyclidine (PCP) is known to produce a syndrome of behavioral effects which have many characteristics in common with schizophrenia. Therefore, antagonism of PCP effects might be evidence for antipsychotic efficacy of a compound.
Male NMRI mice (5-week old, Janvier, France) or C57BL/6J mice (6-week old, Janvier, France) were group housed and allowed ad-libitum access to food and water. A 12 hour light/dark cycle was imposed with lights-on period between 0530 and 1730 hours. All testing occurred between 700 and 1300 hours. All procedures were approved by Abbott Institutional Animal Care and Use Committee (USA) or Animal Welfare Officer (Germany) and were conducted in accordance with the National Institutes of Health Guide for Care and Use of Laboratory Animals guidelines and applicable national laws in the facilities accredited by the Association for the Assessment and Accreditation of Laboratory Animal Care.
On the day of experiment, animals were brought from the animal facility into the experimental room and were allowed to acclimatize for at least 30 minutes. Animals were then placed in the test cages for a habituation period of 60 minutes. The animals were then injected ip with the test compound and returned to the test cage. 30 Minutes later the mice were injected with d-amphetamine (2.0 mg/kg, AMP, Sigma, #A5880, sc) or phencyclidine (2.0 mg/kg, PCP, Sigma, #P3029, sc) Sigma, and returned to the test cages for 90 minutes. Each treatment group consisted of 8-10 animals. The data was acquired by Cage rack Photobeam system (SDI, San Diego Instruments, CA). The analyzed data were: fine movements, ambulations and total movements (fine+ambulations). Data was subjected to one- or two-way distribution-free ANOVA followed by Dunnett's and Tukey's post hoc tests.

The test system of data set [3] is conditioned avoidance response (CAR) behavior. Description: Conditioned avoidance responding in rats. The class given is in vivo, rat. As to conditions: male Wistar rats. As to the method:
The fact that antipsychotics have the unique ability to selectively suppress CAR behavior, made the CAR test a useful tool for the screening of new, potentially antipsychotic compounds. […] Animals Male Wistar rats (9-11 weeks old, Charles River, Germany) were pair-housed and allowed ad-libitum access to food and water. A 12-hour light/dark cycle was imposed with lights-on period between 0530 and 1730 hours. All testing occurred between 700 and 1300 hours. All procedures were approved by Abbott Institutional Animal Care and Use Committee (USA) or Animal Welfare Officer (Germany) and were conducted in accordance with the National Institutes of Health Guide for Care and Use of Laboratory Animals guidelines and applicable national laws in the facilities accredited by the Association for the Assessment and Accreditation of Laboratory Animal Care. Methods Wistar rats are exposed to a conditioned stimulus CS (a 2.9-kHz tone of 10 second duration), which is a signal for the animal that it must move into the other chamber in order to avoid an immediately ensuing footshock US (0.5 mA, 10 second, tone continues during shock presentation). Once the shock has begun, the animal can still escape it by moving to the other chamber. Each session is limited to a maximum of 40 trials (intertrial interval 10-90 seconds). The animals generally learn quickly to change chambers upon the conditioned stimulus and thus avoid further shocks. Scored are: • Avoided responses=crossings into other compartment within 10 seconds of tone presentation; • Escaped responses=crossings between 10-20 seconds of tone presentation; • Failures=crossings after cessation of tone-shock presentation or no crossing. […] At the test sessions (=CS-shock pairings), animals are pre-treated with a test drug or vehicle 30 minutes before commencement of the session.

The target of data set [4] is T2, 5HT2C receptors (Homo sapiens, UniProt P28335).
T2 sequence (P28335 33-458): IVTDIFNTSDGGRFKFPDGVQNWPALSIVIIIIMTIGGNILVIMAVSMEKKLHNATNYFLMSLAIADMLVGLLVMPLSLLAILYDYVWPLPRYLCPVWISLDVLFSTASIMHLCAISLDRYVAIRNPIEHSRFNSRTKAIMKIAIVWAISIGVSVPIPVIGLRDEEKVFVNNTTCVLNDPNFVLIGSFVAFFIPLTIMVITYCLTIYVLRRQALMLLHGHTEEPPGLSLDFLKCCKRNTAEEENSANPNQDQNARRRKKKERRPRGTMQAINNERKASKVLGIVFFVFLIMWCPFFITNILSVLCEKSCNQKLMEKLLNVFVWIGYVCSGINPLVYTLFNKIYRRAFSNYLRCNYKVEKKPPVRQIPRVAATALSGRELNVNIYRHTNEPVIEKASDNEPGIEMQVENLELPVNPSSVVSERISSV
Description: Human 5-HT2C functional high throughput screening assay in CHO-K1 cells (calcium flux). The format is cell-based. Also on record: expressed in transfected cells; host or cells: CHO-K1 cells. Put shortly: as §1
Background: Calcium flux is commonly read through the fluorescence of an indicator in the cells.

T1 sequence (P41595 whole entry): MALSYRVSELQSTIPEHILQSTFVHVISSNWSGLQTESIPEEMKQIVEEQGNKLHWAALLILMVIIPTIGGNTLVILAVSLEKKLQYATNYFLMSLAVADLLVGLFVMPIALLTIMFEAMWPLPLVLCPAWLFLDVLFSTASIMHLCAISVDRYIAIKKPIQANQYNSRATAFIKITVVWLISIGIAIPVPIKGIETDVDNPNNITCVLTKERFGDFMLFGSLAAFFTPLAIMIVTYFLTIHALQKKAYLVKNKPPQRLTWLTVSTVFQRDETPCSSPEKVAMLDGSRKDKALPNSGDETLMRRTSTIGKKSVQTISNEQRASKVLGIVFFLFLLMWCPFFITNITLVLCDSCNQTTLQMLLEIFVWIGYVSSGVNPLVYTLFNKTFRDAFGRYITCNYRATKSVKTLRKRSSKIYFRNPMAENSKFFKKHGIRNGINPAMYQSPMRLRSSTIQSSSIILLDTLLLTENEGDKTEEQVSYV

A word on the EC50: it is the concentration giving half of the maximal effect. One may read the Emax as the maximal effect, on the per cent scale that the assay sets. For the molecule `COc1ccc(-c2ccc3c(c2)C(=O)NC[C@H]2CN(C)C[C@H]32)cc1` [Example 158, (3aS,10bS)-8-(4-Methoxyphenyl)-2-methyl-1,2,3,3a,4,5-hexahydrobenzo[e]pyrrolo[3,4-c]azepin-6(10bH)-one], the EC50 in data set [1] (5-HT2B agonist activity, CHO-K1 cells, calcium flux, read-out: EC50) is above 10000 nM; in data set [4] (5-HT2C agonist activity, CHO-K1 cells, calcium flux, read-out: EC50) it was 0.6 nM. Also, the Emax result is “inactive” in data set [1] (5-HT2B, maximum functional response as percentage relative to the effect of serotonin) and above 120% in data set [4] (CHO-K1, 5-HT2C, maximum functional response as percentage relative to the effect of serotonin, read-out: Emax). The AMP-induced hyperactivity result in data set [2] was “attenuated AMP-induced hyperactivity in mice significantly and in a dose dependent manner; also recorded: attenuating the affect of d-amphetamine (AMP)”. In addition, the “conditioned avoidance behavior (avoided responses)” value in data set [3] (acute, 30 minutes before session) is “significantly suppressed conditioned avoidance behavior”. In data set [3] (indicator of sedation or extrapyramidal side effects), the number of failures entry is reported as “without affecting the number of failures”.
